Experimental data taken from patent USRE47078E1, “Polymorphic forms of N-[4-(trifluoromethyl)benzyl]-4-methoxybutyramide” (Laboratorio Farmaceutico C.T. S.R.L., priority 2007, dated 2018).
Values after ≈ are worked out from the molar mass of the structure shown.

Tests used:
Rat = conditions: compared with GHB, according to EP 0 932 597 B1; cited from earlier work
[1] = Solubility of the polymorphs at different pH (HPLC assay); format: physicochemical
Experimental: Both samples of powder (Form A and Form B) were used in order to evaluate the solubility properties of the two polymorphs at different pH.
The two samples were tested in the following pH conditions: • Hydrochloric acid buffer at pH=1.2 • Acetic acid at pH=3.0 • Phosphate buffer at pH=3.0 • Phosphate buffer at pH=4.6 • Phosphate buffer at pH=6.0 • Phosphate buffer at pH=7.4 • Alkaline phosphate buffer at pH=8.0
0.5 g of each samples were dissolved in a glass flask using 100 ml of the appropriate buffer. The two samples were then kept under stirring for 30 minutes. If the samples were completed dissolved, 1 additional gram was added in the flask and stirred for 30 minutes. The procedure was repeated till the presence of undissolved product in the bottom of the flask. After such a dissolution procedure, the samples were stored for 24 hours and then the dissolved amounts of Form A and Form B, respectively, were determined by HPLC assay.

[2] = Thermodynamic stability / interconversion of the polymorphs; format: physicochemical

COCCCC(=O)NCc1ccc(C(F)(F)F)cc1 [N-[4-(trifluoromethyl)benzyl]-4-methoxybutyramide]
Potency and duration of action on motor activity (Rat): better than GHB

COCCCC(=O)NCc1ccc(C(F)(F)F)cc1 [Polymorphic Form B, N-[4-(trifluoromethyl)benzyl]-4-methoxybutyramide]
Solubility, After 24 hours ([1]; Water): 162.64 µg/mL (≈ 591 µM) | Solubility, Initial evaluation ([1]; Water): 125.44 µg/mL (≈ 456 µM) | Differences in solubility / dissolution properties between the two forms ([1]; dissolution tests on each polymorph): have not shown differences in the solubility properties | Solubility, After 24 hours ([1]; pH 1.2): 164.47 µg/mL (≈ 597 µM) | Solubility, Initial evaluation ([1]; pH 1.2): 136.12 µg/mL (≈ 494 µM) | Solubility, After 24 hours ([1]; pH 3.0 (acetic acid)): 164.84 µg/mL (≈ 599 µM) | Solubility, Initial evaluation ([1]; pH 3.0 (acetic acid)): 143.69 µg/mL (≈ 522 µM) | Solubility, After 24 hours ([1]; pH 3.0 (phosphate buffer)): 156.73 µg/mL (≈ 569 µM) | Solubility, Initial evaluation ([1]; pH 3.0 (phosphate buffer)): 126.87 µg/mL (≈ 461 µM) | Solubility, After 24 hours ([1]; pH 4.6): 147.14 µg/mL (≈ 535 µM) | Solubility, Initial evaluation ([1]; pH 4.6): 129.35 µg/mL (≈ 470 µM) | Solubility, After 24 hours ([1]; pH 6.0): 143.2 µg/mL (≈ 520 µM) | Solubility, Initial evaluation ([1]; pH 6.0): 125.95 µg/mL (≈ 458 µM) | Solubility, After 24 hours ([1]; pH 6.8): 146.25 µg/mL (≈ 531 µM) | Solubility, Initial evaluation ([1]; pH 6.8): 131.46 µg/mL (≈ 478 µM) | Solubility, After 24 hours ([1]; pH 7.4): 143.79 µg/mL (≈ 522 µM) | Solubility, Initial evaluation ([1]; pH 7.4): 113.60 µg/mL (≈ 413 µM) | Solubility, After 24 hours ([1]; pH 8.0): 146.25 µg/mL (≈ 531 µM) | Solubility, Initial evaluation ([1]; pH 8.0): 130.61 µg/mL (≈ 474 µM) | Thermodynamic stability, conversion of one form into the other [2]: thermodynamically stable, with no conversion of one into the other
